Biological target: T1, aldose reductase (Rattus norvegicus, UniProt P07943)
T1 construct: The crystalline lenses were homogenized in 135 mM sodium-potassium-phosphate buffer (pH 7.0) and centrifuged; from tissue; host or cells: lens of 6 week-old Wistar rats (30,000 rpm supernatant of homogenate)
Test: Determination of Aldose Reductase Activity (In Vitro)
Type: biochemical, rat (Wistar)
Conditions: Table 3; for inhibition at 10 µM: at the concentration of 10 μM, read-out: Inhibition rate %; for IC50: rat lens aldose reductase, 20 mM glucose, 30 min, 30° C, pH 7.0, read-out: 50% Inhibition Conc. [IC50 (M)]
Method: 6 week-old Wistar rats were sacrificed under ether anesthesia, and immediately lenses were removed and stored at -20° C. The crystalline lenses were homogenized in 135 mM sodium-potassium-phosphate buffer (pH 7.0) and centrifuged for 30 min. at 30,000 rpm. The supernatant was used as an aldose-reductase solution. The above procedure was carried out at 4° C. The enzyme solution was stored at -20° C.
The measurement of aldose reductase activity was conducted according to the method as described by Duffane et al. (Biochemical Medicine, 32:99-105 (1984)).
That is, 100 gl of the above enzyme solution and 100 gl of a solution prepared by dissolving a compound obtained in the following example to a final concentration of from 1.0×10^-5 to 4.0×10^-7 M in dimethylsulfoxide (DMSO) were added to 800 gl of 135 mM sodium-potassium-phosphate buffer (pH 7.0) containing 100 mM lithium sulfate, 0.03 mM NADPH (reduced form of nicotinamide adeninc dinucleotide phosphate) and 20 mM glucose as a substrate. The sample was allowed to react for 30 min. at 30° C. The reaction was stopped by addition of 0.3 ml of 0.5N hydrochloric acid. The NADP (oxided form of nicotinamide adenine dinucleotide) formed during the above reaction was converted into a fluorescent substance by addition of 1 ml of 6N sodium hydroxide containing 10 mM imidazole. 30 min. thereafter, the sample was measured for fluorescence intensity at the fluorescence wavelength of 460 nm (excitation wavelength: 360 nm) using a fluorescence photometer F-4000 (manufactured by Hitachi, Ltd.) at room temperature. A sample containing DMSO in place of the present compound was used as a control, and its fluorescence intensity was determined in the same manner as above.
Aldose reductase is an enzyme to convert DL-glyceraldehyde or glucose into polyol in the presence of NADPH as a coenzyme. As this reaction proceeds, NADPH is converted into NADP, so that the smaller amount of NADP formed indicates higher inhibition of aldose reductase. […]

| SMILES | inhibition at 10 µM | IC50 |
| --- | --- | --- |
| COc1c(OC(C)=O)cc2oc(Sc3ccc(O)cc3)cc(=O)c2c1OC(C)=O [Compound 1 obtained in Example 28, 5,7-diacetoxy-2-(4-hydroxyphenylthio)-6-methoxychromone] | 95.4% | 1.7e-07 M |
| COc1c(OC(C)C)cc2oc([S+]([O-])c3ccc(O)cc3)cc(=O)c2c1OC (stereo not shown) [Compound 1 obtained in Example 34, 5,6-dimethoxy-2-(4-hydroxyphenylsulfinyl)-7-isopropoxychromone] | 98% | 4.6e-07 M |
| COc1c(OC(C)=O)cc2oc(Sc3ccc(O)cc3)cc(=O)c2c1O [Compound 2 obtained in Example 28, 7-acetoxy-5-hydroxy-2-(4-hydroxyphenylthio)-6-methoxychromone] | 95.4% | 3e-07 M |
| COc1c(OC(C)C)cc2oc(S(=O)(=O)c3ccc(O)cc3)cc(=O)c2c1OC [Compound 2 obtained in Example 34, 5,6-dimethoxy-2-(4-hydroxyphenylsulfonyl)-7-isopropoxychromone] | 96.6% | 1e-06 M |
| COc1cc(O)c2c(=O)cc(Nc3ccc(O)cc3)oc2c1 [Compound 2 obtained in Example 77, 5-hydroxy-2-(4-hydroxyanilino)-7-methoxychromone] | 40% |  |
| COc1cc2oc(Sc3ccc(O)cc3)cc(=O)c2c(O)c1OC [Example 2, 5-hydroxy-2-(4-hydroxyphenylthio)-6,7-dimethoxychromone] | 87.1% | 1.1e-07 M |
| CCOc1cc2oc(Sc3ccc(O)cc3)cc(=O)c2c(OCC)c1OC [Example 11, 5,7-diethoxy-2-(4-hydroxyphenylthio)-6-methoxychromone] | 98.5% | 4e-08 M |
| CCCOc1cc2oc(Sc3ccc(O)cc3)cc(=O)c2c(OCCC)c1OC [Example 12, 5,7-dipropoxy-2-(4-hydroxyphenylthio)-6-methoxychromone] | 93% | 1.5e-07 M |
| COc1c(OC(C)C)cc2oc(Sc3ccc(O)cc3)cc(=O)c2c1OC(C)C [Example 13, 5,7-diisopropoxy-2-(4-hydroxyphenylthio)-6-methoxychromone] | 93.7% | 1.8e-08 M |
| CCCCOc1cc2oc(Sc3ccc(O)cc3)cc(=O)c2c(OCCCC)c1OC [Example 14, 5,7-dibutoxy-2-(4-hydroxyphenylthio)-6-methoxychromone] | 86.8% | 1.9e-07 M |
| CCC(C)Oc1cc2oc(Sc3ccc(O)cc3)cc(=O)c2c(OC(C)CC)c1OC (stereo not shown) [Example 15, 5,7-di-s-butoxy-2-(4-hydroxyphenylthio)-6-methoxychromone] | 98.4% | 3.8e-08 M |
| COc1c(OCC(C)C)cc2oc(Sc3ccc(O)cc3)cc(=O)c2c1OC(C)C [Example 17, 2-(4-hydroxyphenylthio)-7-isobutoxy-5-isopropoxy-6-methoxychromone] | 95.1% | 1.3e-07 M |
| COc1c(OC(C)C)cc2oc(Sc3ccc(O)c(Cl)c3)cc(=O)c2c1OC(C)C [Example 19, 2-(3-chloro-4-hydroxyphenylthio)-5,7-diisopropoxy-6-methoxychromone] | 69.8% | 4e-06 M |
| COc1c(OC(C)C)cc2oc(Sc3ccc(O)cc3)cc(=O)c2c1O [Example 26, 5-hydroxy-2-(4-hydroxyphenylthio)-7-isopropoxy-6-methoxychromone] | 98.1% | 6.5e-08 M |
| CCOc1c(OC)c(OCC=C(C)C)cc2oc(Sc3ccc(O)cc3)cc(=O)c12 [Example 31, 5-ethoxy-2-(4-hydroxyphenylthio)-6-methoxy-7-prenyloxychromone] | 100% | 2.3e-07 M |
| COc1cc(OC)c2c(=O)cc(Sc3ccccc3)oc2c1 [Example 41, 5,7-dimethoxy-2-phenylthiochromone] | 52.4% |  |
| COc1cc(OC)c2c(=O)cc(Sc3ccccc3Cl)oc2c1 [Example 42, 5,7-dimethoxy-2-(2-chlorophenylthio)chromone] | 47.7% |  |
| COc1cc(OC)c2c(=O)cc(Sc3cccc(Cl)c3)oc2c1 [Example 43, 5,7-dimethoxy-2-(3-chlorophenylthio)chromone] | 44% |  |
| COc1cc(OC)c2c(=O)cc(Sc3ccccc3OC)oc2c1 [Example 46, 5,7-dimethoxy-2-(2-methoxyphenylthio)chromone] | 28.4% |  |
| COc1cccc(Sc2cc(=O)c3c(OC)cc(OC)cc3o2)c1 [Example 47, 5,7-dimethoxy-2-(3-methoxyphenylthio)chromone] | 36.5% |  |

More lines, now with the values ahead:

| inhibition at 10 µM | IC50 | SMILES |
| --- | --- | --- |
| 48.2% |  | COc1cc(OC)c2c(=O)cc(Sc3ccccc3N)oc2c1 [Example 49, 5,7-dimethoxy-2-(2-aminophenylthio)chromone] |
| 31.7% |  | COc1cc(OC)c2c(=O)cc(Sc3ccccc3C)oc2c1 [Example 52, 5,7-dimethoxy-2-(2-methylphenylthio)chromone] |
| 22.8% |  | COc1cc(OC)c2c(=O)cc(Sc3cccc(C)c3)oc2c1 [Example 53, 5,7-dimethoxy-2-(3-methylphenylthio)chromone] |
| 35.9% |  | COc1cc(OC)c2c(=O)cc(Sc3ccccc3O)oc2c1 [Example 56, 2-(2-hydroxyphenylthio)-5,7-dimethoxychromone] |
| 50.5% |  | COc1cc(OC)c2c(=O)cc(Sc3cccc(O)c3)oc2c1 [Example 57, 2-(3-hydroxyphenylthio)-5,7-dimethoxychromone] |
| 37.4% |  | COc1cc(OC)c2c(=O)cc(Sc3ccccn3)oc2c1 [Example 58, 5,7-dimethoxy-2-(2-pyridylthio)chromone] |
| 37.1% |  | COc1cc(OC)c2c(=O)cc(Sc3ccncc3)oc2c1 [Example 59, 5,7-dimethoxy-2-(4-pyridylthio)chromone] |
| 31.1% |  | COc1cc(OC)c2c(=O)cc(Sc3nnc(N)s3)oc2c1 [Example 63, 2-(2-amino-5-thiadiazolylthio)-5,7-dimethoxychromone] |
| 52.9% |  | COc1cc(OC)c2c(=O)cc(Sc3ccc(C(=O)O)cc3)oc2c1 [Example 64, 4-(5,7-dimethoxychromonyl-2-thio)benzoic acid] |
| 23.1% |  | COC(=O)c1ccc(Sc2cc(=O)c3c(OC)cc(OC)cc3o2)cc1 [Example 65, methyl 4-(5,7-dimethoxychromonyl-2-thio)benzoate] |
| 31.5% |  | COc1cc(OC)c2c(=O)cc(Sc3ccc(CO)cc3)oc2c1 [Example 66, 5,7-dimethoxy-2-(4-hydroxymethyl-phenylthio)chromone] |
| 97.7% |  | CC(C)Oc1cc(OC(C)C)c2c(=O)cc(Sc3ccc(O)cc3)oc2c1 [Example 69, 5,7-diisopropoxy-2-(4-hydroxyphenylthio)chromone] |
| 85.5% | 1e-06 M | COc1cc(OC)c2c(=O)cc(Oc3ccc(O)cc3)oc2c1 [Example 70, 2-(4-hydroxyphenoxy)-5,7-dimethoxychromone] |
| 88.7% | 1e-07 M | COc1cc(OC)c2c(=O)cc(Sc3ccc(O)cc3)oc2c1 [Example 71, 2-(4-hydroxyphenylthio)-5,7-dimethoxychromone] |
| 84% | 1e-07 M | COc1cc(O)c2c(=O)cc(Sc3ccc(O)cc3)oc2c1 [Example 72, 5-hydroxy-2-(4-hydroxyphenylthio)-7-methoxychromone] |

Reference: patent US5455267A, “Chromone derivative, and aldose reductase inhibitor comprising said compound as active component” (Tsumura & Co., priority 1990, dated 1995)
